“And” between values parts separate entries of the source, which are not always exact repeats. Equal entries are not always repeated. “Also recorded” adds a separate entry of the source.
Legend:
[1] = Relaxivity of monomeric Gd complexes without enzyme; assay type: physicochemical; conditions: for r1p (0.47T, 40°) / r1p (1.5T, 25°): no HRP
Procedure: Stock solutions of compounds 1Gd and 2Gd were prepared by dissolving the corresponding complexes in DPBS buffer solution (pH 7.4) and were kept at −4° in the dark. Every stock solution was titrated by means of ICP-MS (Elemental Research Inc.).
Relaxation times at 0.47 T was obtained on a Bruker NMS-120 Minispec spectrometer using an inversion recovery sequence, with a TR=5T1, and 15 TI points evenly spaced up to 5T1.
Relaxation times at 1.5 T was measured on a 1.5 T GE Excite MR scanner utilizing an inversion recovery sequences with TR=2000 ms, TI=50, 75, 100, 150, 200, 250, 300, 350, 400, 500, 625, 750, 1000 ms. A fixed-size region of interest was drawn to obtain the signal intensity of the samples.
The data at 0.47 T and 1.5 T were fitted to the equation Ix=I0*(1−2e^[…]) to obtain T1, where I is the signal obtained at a certain time point TI, with I0 (total signal or magnetization) and T1 being fitted values.
The relaxivities of various polymerized products were measured using a minimum of four different gadolinium complex concentrations ranging from 2.5 mM to 0.01 mM. Horseradish peroxidase (HRP) was used in the proof-of-the-principle experiments. As used herein, the descriptors 1Gd^3+ and 2Gd^3+ refer to Gd^3+-chelated compounds 1 and 2, respectively. The synthesis of 1Gd^3+ and 2Gd^3+ are described in the Examples.

[2] = target: T1, human MPO embedded in Matrigel (Homo sapiens, UniProt P05164); assay: MPO/Matrigel implant mouse model, T1-weighted MR imaging; assay type: in vivo; conditions: for enhancement of MPO implant compared with control implant: right MPO/Matrigel vs left control; for enhancement of MPO implant compared with control implant / relative CNR before wash-out/decrease of the control side: 1.5 T; for maximum relative CNR ratio (CNR(right)/CNR(left)): MPO/Matrigel right vs control left
T1 construct: purchased BioDesign, Inc
T1 sequence (P05164 49-745): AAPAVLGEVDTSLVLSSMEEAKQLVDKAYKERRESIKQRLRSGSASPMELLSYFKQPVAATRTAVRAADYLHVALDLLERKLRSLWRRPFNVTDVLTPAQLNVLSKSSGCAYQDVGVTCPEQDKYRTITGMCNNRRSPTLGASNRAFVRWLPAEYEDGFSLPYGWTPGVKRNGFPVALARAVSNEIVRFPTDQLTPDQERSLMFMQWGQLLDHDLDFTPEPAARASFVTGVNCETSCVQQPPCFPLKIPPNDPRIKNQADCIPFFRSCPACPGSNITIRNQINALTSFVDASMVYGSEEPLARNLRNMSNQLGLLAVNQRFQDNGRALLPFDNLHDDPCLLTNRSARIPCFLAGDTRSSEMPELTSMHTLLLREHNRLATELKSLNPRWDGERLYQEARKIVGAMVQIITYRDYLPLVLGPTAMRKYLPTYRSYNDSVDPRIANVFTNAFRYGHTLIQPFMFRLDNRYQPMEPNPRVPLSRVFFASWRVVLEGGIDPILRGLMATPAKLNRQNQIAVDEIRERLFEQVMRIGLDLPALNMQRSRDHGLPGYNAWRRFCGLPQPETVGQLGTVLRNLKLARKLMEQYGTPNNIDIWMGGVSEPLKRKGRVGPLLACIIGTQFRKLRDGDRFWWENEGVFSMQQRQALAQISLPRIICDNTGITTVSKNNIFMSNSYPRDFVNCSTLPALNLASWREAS
Procedure: To evaluate the monomeric substrates in vivo, we devised a mouse model that harbored 400 μL of Matrigel basement membrane matrix gel mixed 1:1 by volume with a solution containing 15 U of human MPO and glucose oxidase (as a source of hydrogen peroxide) that was injected into the right flank of the mouse. The left flank was injected with the enzyme-free Matrigel mixture. We subsequently performed T1-weighted MR imaging after the intravenous injection of Gd-DTPA-diSer substrate at the dose of […].
The MR imaging experiments were performed on a 1.5 T GE Excite scanner and a 4.7 T Bruker Pharmascan scanner. For all MR imaging experiments, precontrast T2-(TR=2000, TE=100, ETL=8, NEX=4, fast spin echo sequence) and T1-weighted images (TR=500, TE=11, NEX=4, spin echo sequence) with fat saturation were initially performed to locate the gels or area of inflammation. The substrates (0.3 mmol/kg) were subsequently injected via the tail vein of the mouse. The mouse was immediately imaged after the injection of the contrast agent using multiple T1-weighted sequences with fat saturation for at least 3 hours.
Ten-week old C57BL6 male mice were obtained from Jackson Laboratories. A total of 22 mice were used for the study. • 1. MPO/Matrigel imaging experiments: Matrigel™ (Beckton-Dickinson), a […] basement membrane matrix gel was used to immobilize human MPO and glucose oxidase (to supply H2O2 required for detecting MPO oxidative activity, Calbiochem). This was chosen to reflect deposits of human MPO in inflamed tissue in a mouse model. 400 μL of a mixture of Matrigel™ and MEM (Cambrex) was injected slowly into the thighs of each mouse one hour prior to imaging. The right thigh mixture also contained 15 U of MPO and 4 U of glucose oxidase (Calbiochem), while the left thigh mixture contained no enzyme and thus serves as an internal control. A total of 15 mice were used (3 mice each for 5-HT-DOTA(Gd), bis-5-HT-DTPA(Gd), bis-5-HT-DTPA-^111In, bis-tyramide-DTPA(Gd), and DTPA(Gd)). • 2. LPS/Matrigel experiments (n=3): This model was developed to induce endogeneous mouse MPO secretion and activation. 200 μL total volume Matrigel containing 10% heparin was injected slowly into the thighs of the mice 4 days prior to imaging. The right-sided mixture also contained E. coli lipopolysaccharide (LPS) at 10 μg/mL. One mouse was sacrificed for immunohistochemistry. • 3. Myositis experiments (n=4): LPS at 100 μg/mL in PBS was injected into each mouse intramuscularly in the right flank to produce myositis. The mice are imaged 24 hours after injection.
For normalized signal intensity measured on T1-weighted images, mean±standard deviation (SD) values were calculated in regions of interest (ROI). Contrast-to-noise (CNR) ratios were computed for each ROI according to the formula

Compound	r1p (0.47T, 40°) ([1]; H2O pH = 4.8)	r1p (0.47T, 40°) ([1]; PBS pH = 7.4)	r1p (1.5T, 25°) ([1]; PBS pH = 7.4)	enhancement of MPO implant compared with control implant ([2]; mice, listed as bis-tyramide-DTPA(Gd))	r1 ([1]; well plate at 1.5T, pH 7.2, no enzyme (row 1))	relative CNR increase before significant wash-out of the control side ([2]; mice, 4.7 T)	maximum relative CNR increase ([2]; mice, at 240 minutes (washout from control implant))	maximum relative CNR increase ([2]; mice, in the first 143 minutes)	enhancement of MPO implant compared with control implant ([2]; mice)	relative CNR before wash-out/decrease of the control side ([2]; mouse)	relative CNR before wash-out/decrease of the control side ([2]; mouse, listed as bis-5-HT-DTPA(Gd))	maximum relative CNR ratio (CNR(right)/CNR(left)) ([2]; mouse)	relative CNR ratio ([2]; mouse, at 185 minutes)	increase in the contrast-to-noise ratio, right (MPO-containing) vs left (control) flank ([2]; mouse, i.v. 0.3 mM/Kg, over 3 hours post injection)	maximum relative CNR ratio (CNR(right)/CNR(left)) ([2]; mouse, listed as serotonin-DOTA-Gd^3+ complex)
O=C([O-])CN(CCN(CC(=O)[O-])CC(=O)NCCc1ccc(O)cc1)CCN(CC(=O)[O-])CC(=O)NCCc1ccc(O)cc1.[Gd+3] [1Gd^3+]	4.6 mM⁻¹ s⁻¹	~4.3 mM⁻¹ s⁻¹	5.3 mM⁻¹ s⁻¹	did not result in significantly increased enhancement; also recorded: did not demonstrate significantly increased enhancement											
O=C([O-])CN(CCN(CC(=O)[O-])CC(=O)NCCc1c[nH]c2ccc(O)cc12)CCN(CC(=O)[O-])CC(=O)NCCc1c[nH]c2ccc(O)cc12.[Gd+3] [2Gd^3+]	4.5 mM⁻¹ s⁻¹	~4.3 mM⁻¹ s⁻¹	5.1 mM⁻¹ s⁻¹		4.7 mM⁻¹ s⁻¹	1.8 fold	2.5 times	1.9 times	significantly increased enhancement	1.7-1.8	1.9	1.72 and 2.5	2.0	1.7-2.0 fold	
CC(C(=O)NCC(=O)NCCc1c[nH]c2ccc(O)cc12)N1CCN(CC(=O)[O-])CCN(CC(=O)[O-])CCN(CC(=O)[O-])CC1.[Gd+3] (centres unmarked) [5-HT-DOTA(Gd), Glycylmethyl DOTA(Gd) 5-Hydroxytryptamide]									significantly increased enhancement			1.7			1.72

From US8153784B2, “Imaging of enzyme activity” (The General Hospital Corporation, priority 2004, dated 2012)
